Species on record: Rattus norvegicus
Experiment: DrugMatrix - Regimen: Daily Repeat
Type: toxicity, organism-based, Sprague-Dawley
Set-up: regimen Daily Repeat, gender Male, age 6-8 weeks
Conditions: in vivo, po, route oral GAVAGE, […]; for ABSOLUTE BASOPHIL / ABSOLUTE EOSINOPHIL / ABSOLUTE LYMPHOCYTE / ABSOLUTE MONOCYTE / ABSOLUTE SEGMENTED NEUTROPHIL / BASOPHIL / EOSINOPHIL / ERYTHROCYTE COUNT / HEMATOCRIT / HEMOGLOBIN / LEUKOCYTE COUNT / LYMPHOCYTE / MEAN CORPUSCULAR HEMOGLOBIN / MEAN CORPUSCULAR HEMOGLOBIN CONCENTRATION / MEAN CORPUSCULAR VOLUME / MONOCYTE / NEUTROPHIL / NUCLEATED RED BLOOD CELLS / PLATELET COUNT: tissue Blood; for ALANINE AMINOTRANSFERASE / ALBUMIN / ALKALINE PHOSPHATASE / ASPARTATE AMINOTRANSFERASE / BLOOD UREA NITROGEN / CARBON DIOXIDE / CHLORIDE / CHOLESTEROL / CREATINE PHOSPHOKINASE / CREATININE / GLUCOSE / LACTATE DEHYDROGENASE / LIPASE / PHOSPHORUS / POTASSIUM / SODIUM / TOTAL BILIRUBIN / TOTAL PROTEIN / URIC ACID: tissue Plasma
[1] = 4 mg/kg, 120 h, dose level Low, time 5 day
[2] = 63 mg/kg, 72 h, dose level High, time 3 day
[3] = 63 mg/kg, 120 h, dose level High, time 5 day

CSc1ccc2c(c1)N(CCC1CCCCN1C)c1ccccc1S2 (centres undefined) [THIORIDAZINE]
ABSOLUTE BASOPHIL [1]: 0 CELLS/uL | ABSOLUTE EOSINOPHIL [1]: 185.33 CELLS/uL | ABSOLUTE LYMPHOCYTE [1]: 12393.33 CELLS/uL | ABSOLUTE MONOCYTE [1]: 143.33 CELLS/uL | ABSOLUTE SEGMENTED NEUTROPHIL [1]: 1078 CELLS/uL | BASOPHIL [1]: 0% | EOSINOPHIL [1]: 1.33% | ERYTHROCYTE COUNT [1]: 6.21 x10E6/uL | HEMATOCRIT [1]: 39.13% | HEMOGLOBIN [1]: 14.43 G/DL | LEUKOCYTE COUNT [1]: 13.8 x10E3/uL | LYMPHOCYTE [1]: 90% | MEAN CORPUSCULAR HEMOGLOBIN [1]: 23.27 pg | MEAN CORPUSCULAR HEMOGLOBIN CONCENTRATION [1]: 36.87 G/DL | MEAN CORPUSCULAR VOLUME [1]: 63.13 fL | MONOCYTE [1]: 1% | NEUTROPHIL [1]: 7.67% | NUCLEATED RED BLOOD CELLS [1]: 0.33 /100WBC | PLATELET COUNT [1]: 1375 x10E3/uL | ALANINE AMINOTRANSFERASE [1]: 42.67 u/L | ALBUMIN [1]: 4.4 G/DL | ALKALINE PHOSPHATASE [1]: 474.67 u/L | ASPARTATE AMINOTRANSFERASE [1]: 94.67 u/L | BLOOD UREA NITROGEN [1]: 17.67 mg/dL | CARBON DIOXIDE [1]: 24.33 mmol/L | CHLORIDE [1]: 103.67 MEQ/L | CHOLESTEROL [1]: 48.67 mg/dL | CREATINE PHOSPHOKINASE [1]: 499.33 u/L | CREATININE [1]: 0.19 mg/dL | GLUCOSE [1]: 188 mg/dL | LACTATE DEHYDROGENASE [1]: 405 u/L | LIPASE [1]: 9.33 u/L | PHOSPHORUS [1]: 12.77 mg/dL | POTASSIUM [1]: 5.85 MEQ/L | SODIUM [1]: 141.6 MEQ/L | TOTAL BILIRUBIN [1]: 0.1 mg/dL | TOTAL PROTEIN [1]: 6.63 G/DL | URIC ACID [1]: 2.07 mg/dL | ABSOLUTE BASOPHIL [2]: 0 CELLS/uL | ABSOLUTE EOSINOPHIL [2]: 50 CELLS/uL | ABSOLUTE LYMPHOCYTE [2]: 8382 CELLS/uL | ABSOLUTE MONOCYTE [2]: 59.67 CELLS/uL | ABSOLUTE SEGMENTED NEUTROPHIL [2]: 575 CELLS/uL | BASOPHIL [2]: 0% | EOSINOPHIL [2]: 0.67% | ERYTHROCYTE COUNT [2]: 5.2 x10E6/uL | HEMATOCRIT [2]: 32.73% | HEMOGLOBIN [2]: 12.73 G/DL | LEUKOCYTE COUNT [2]: 9.07 x10E3/uL | LYMPHOCYTE [2]: 92.33% | MEAN CORPUSCULAR HEMOGLOBIN [2]: 24.53 pg | MEAN CORPUSCULAR HEMOGLOBIN CONCENTRATION [2]: 38.9 G/DL | MEAN CORPUSCULAR VOLUME [2]: 63.07 fL | MONOCYTE [2]: 0.67% | NEUTROPHIL [2]: 6.33% | NUCLEATED RED BLOOD CELLS [2]: 0 /100WBC | PLATELET COUNT [2]: 1257.67 x10E3/uL | ALANINE AMINOTRANSFERASE [2]: 49.33 u/L | ALBUMIN [2]: 4.2 G/DL | ALKALINE PHOSPHATASE [2]: 379.33 u/L | ASPARTATE AMINOTRANSFERASE [2]: 77.67 u/L | BLOOD UREA NITROGEN [2]: 16 mg/dL | CARBON DIOXIDE [2]: 28.67 mmol/L | CHLORIDE [2]: 104.67 MEQ/L | CHOLESTEROL [2]: 74.33 mg/dL | CREATINE PHOSPHOKINASE [2]: 301.33 u/L | CREATININE [2]: 0.2 mg/dL | GLUCOSE [2]: 164 mg/dL | LACTATE DEHYDROGENASE [2]: 99.33 u/L | LIPASE [2]: 9 u/L | PHOSPHORUS [2]: 10.9 mg/dL | POTASSIUM [2]: 5.63 MEQ/L | SODIUM [2]: 146.33 MEQ/L | TOTAL BILIRUBIN [2]: 0.17 mg/dL | TOTAL PROTEIN [2]: 6 G/DL | URIC ACID [2]: 1.13 mg/dL | ABSOLUTE BASOPHIL [3]: 0 CELLS/uL | ABSOLUTE EOSINOPHIL [3]: 0 CELLS/uL | ABSOLUTE LYMPHOCYTE [3]: 12825 CELLS/uL | ABSOLUTE MONOCYTE [3]: 117.67 CELLS/uL | ABSOLUTE SEGMENTED NEUTROPHIL [3]: 1290.67 CELLS/uL | BASOPHIL [3]: 0% | EOSINOPHIL [3]: 0% | ERYTHROCYTE COUNT [3]: 5.78 x10E6/uL | HEMATOCRIT [3]: 35.33% | HEMOGLOBIN [3]: 13.37 G/DL | LEUKOCYTE COUNT [3]: 14.23 x10E3/uL | LYMPHOCYTE [3]: 90.33% | MEAN CORPUSCULAR HEMOGLOBIN [3]: 23.13 pg | MEAN CORPUSCULAR HEMOGLOBIN CONCENTRATION [3]: 37.87 G/DL | MEAN CORPUSCULAR VOLUME [3]: 61.23 fL | MONOCYTE [3]: 1% | NEUTROPHIL [3]: 8.67% | NUCLEATED RED BLOOD CELLS [3]: 0.33 /100WBC | PLATELET COUNT [3]: 1309.67 x10E3/uL | ALANINE AMINOTRANSFERASE [3]: 52.33 u/L | ALBUMIN [3]: 4 G/DL | ALKALINE PHOSPHATASE [3]: 520 u/L | ASPARTATE AMINOTRANSFERASE [3]: 97.33 u/L | BLOOD UREA NITROGEN [3]: 13.67 mg/dL | CARBON DIOXIDE [3]: 23.33 mmol/L | CHLORIDE [3]: 106.33 MEQ/L | CHOLESTEROL [3]: 55 mg/dL | CREATINE PHOSPHOKINASE [3]: 913 u/L | CREATININE [3]: 0.19 mg/dL | GLUCOSE [3]: 175.33 mg/dL | LACTATE DEHYDROGENASE [3]: 124.33 u/L | LIPASE [3]: 8.67 u/L | PHOSPHORUS [3]: 11.6 mg/dL | POTASSIUM [3]: 5.22 MEQ/L | SODIUM [3]: 144.53 MEQ/L | TOTAL BILIRUBIN [3]: 0.17 mg/dL | TOTAL PROTEIN [3]: 5.87 G/DL | URIC ACID [3]: 1.37 mg/dL
